{
  "source": "patent US20260110682A1",
  "about": "“COMPOSITIONS AND METHODS TARGETING SWIP-10 AND MBLAC1 FOR THE THERAPEUTIC MODULATION OF COPPER DYSHOMEOSTASIS” (Florida Atlantic University Board of Trustees, priority 2022, published 2026)",
  "key": {"DA neurons": {"test_system": "DA neurons", "test": "DA neuron degeneration in worms with GFP-labeled DA neurons (BY250), scored by fluorescence/confocal imaging", "assay_type": "in vivo, C. elegans", "conditions": "for rescue of DA neuron degeneration of swip-10: BY250", "description": "FIG. 6A: WT transgenic worms with GFP-labeled DA neurons (BY250) were raised on agar plates containing vehicle or 10 μM of the Cu+ specific chelator BCS and imaged by fluorescence microscopy at the late L4 stage to quantify DA neuron degeneration. Data derived from 4 experiments for each condition with statistical evaluation by a one-tailed Student's t-test. […] CuCl2 is known to generate Cu+ upon uptake into cells, thus elevating intracellular Cu+ levels. […] Sustained alterations in mitochondrial function and increased oxidative stress are expected to place neurons at risk for death due to their high metabolic rate. […] Assays were performed blind to genotype and treatment, and degeneration assessed by scoring the frequency of dendritic breaks, shrunken soma and missing neurons as described by Gibson et al, 2018. Extending work examining degeneration in BY250: swip-10 vs BY250, a potential Cu-sensitive regulation of swip-10 degeneration was assessed using growth of BY250 animals on the Cu+ specific chelator, BCS, to promote degeneration, and incubation of BY250: swip-10 on CuCl2 and elesclomol to prevent swip-10 degeneration."}, "Menkes disease": {"test_system": "Menkes disease", "conditions": "boosting Cu levels; cited from earlier work"}, "[1]": {"test_system": "mitochondrial respiration", "conditions": "swip-10 KO worms treated with FCCP", "excerpt": "Data here are presented as mean oxygen consumption (pmol/second) of 100 worms. ** represents statistical significance (P<0.01) compared to the N2 strain by a two-tailed (unpaired) t-test."}, "MBLAC1": {"molecular_target": "T1, MBLAC1 (Homo sapiens, UniProt A4D2B0)", "T1 sequence (A4D2B0 1-266)": "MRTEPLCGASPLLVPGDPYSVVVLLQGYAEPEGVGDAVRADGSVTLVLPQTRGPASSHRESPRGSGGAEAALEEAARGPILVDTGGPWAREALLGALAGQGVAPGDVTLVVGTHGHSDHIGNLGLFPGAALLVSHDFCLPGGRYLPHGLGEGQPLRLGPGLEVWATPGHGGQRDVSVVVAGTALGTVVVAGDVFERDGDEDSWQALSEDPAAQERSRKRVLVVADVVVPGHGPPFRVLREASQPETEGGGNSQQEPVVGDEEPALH", "conditions": "cited from earlier work"}, "[2]": {"test_system": "animal models of AD and other neurodegenerative disorders", "conditions": "stroke, oxygen glucose deprivation induced neurodegeneration, motor neuron degeneration; cited from earlier work"}, "[3]": {"test_system": "GLT1 type glutamate transporter", "conditions": "rodents treated with ceftriaxone; cited from earlier work"}, "chca-1": {"test_system": "chca-1", "test": "qPCR of chca-1 RNA levels in worms", "assay_type": "in vivo, C. elegans", "conditions": "N2 worms treated with BCS; similar extent as in swip-10 animals"}},
  "data": [
    {"smiles": "CN(NC(=O)CC(=O)NN(C)C(=S)c1ccccc1)C(=S)c1ccccc1", "note": "[elesclomol]", "values": [
      {"measurement": "rescue of DA neuron degeneration of swip-10", "setting": "DA neurons; swip-10 animals incubated with elesclomol (5 μM)", "value": "rescued"},
      {"measurement": "pathology associated with Menkes disease", "setting": "Menkes disease", "value": "reduce pathology"}
    ]},
    {"smiles": "[Cl][Cu][Cl]", "note": "[CuCl2]", "values": [
      {"measurement": "rescue of DA neuron degeneration of swip-10", "setting": "DA neurons; swip-10 animals incubated with CuCl2 (10 μM)", "value": "rescued"}
    ]},
    {"smiles": "N#CC(C#N)=NNc1ccc(OC(F)(F)F)cc1", "note": "[FCCP]", "values": [
      {"measurement": "oxygen consumption", "setting": "[1]", "value": "restores oxygen consumption"}
    ]},
    {"smiles": "CO/N=C(\\C(=O)N[C@@H]1C(=O)N2C(C(=O)O)=C(CSc3nc(=O)c(=O)[nH]n3C)CS[C@H]12)c1csc(N)n1", "note": "[ceftriaxone]", "values": [
      {"measurement": "binding to MBLAC1", "setting": "MBLAC1", "value": "binds MBLAC1"},
      {"measurement": "neuroprotection", "setting": "[2]", "value": "demonstrates neuroprotection"},
      {"measurement": "GLT1 type glutamate transporter level", "setting": "[3]", "value": "triggers an elevation"}
    ]},
    {"smiles": "Cc1cc(-c2ccc(S(=O)(=O)O)cc2)c2ccc3c(-c4ccc(S(=O)(=O)O)cc4)cc(C)nc3c2n1", "note": "[BCS, bathocuproinedisulfonic acid]", "values": [
      {"measurement": "DA neuron degeneration", "setting": "DA neurons; WT (BY250) worms raised on agar plates containing 10 μM BCS, imaged at late L4 stage", "value": "DA neuron degeneration generated"},
      {"measurement": "chca-1 RNA levels", "setting": "chca-1", "value": "elevated"}
    ]}
  ]
}
